Holding throughout (type): biochemical
In assay [1] the target is T1, LATS2 (Homo sapiens, UniProt Q9NRM7).
T1 sequence (Q9NRM7 1-1088): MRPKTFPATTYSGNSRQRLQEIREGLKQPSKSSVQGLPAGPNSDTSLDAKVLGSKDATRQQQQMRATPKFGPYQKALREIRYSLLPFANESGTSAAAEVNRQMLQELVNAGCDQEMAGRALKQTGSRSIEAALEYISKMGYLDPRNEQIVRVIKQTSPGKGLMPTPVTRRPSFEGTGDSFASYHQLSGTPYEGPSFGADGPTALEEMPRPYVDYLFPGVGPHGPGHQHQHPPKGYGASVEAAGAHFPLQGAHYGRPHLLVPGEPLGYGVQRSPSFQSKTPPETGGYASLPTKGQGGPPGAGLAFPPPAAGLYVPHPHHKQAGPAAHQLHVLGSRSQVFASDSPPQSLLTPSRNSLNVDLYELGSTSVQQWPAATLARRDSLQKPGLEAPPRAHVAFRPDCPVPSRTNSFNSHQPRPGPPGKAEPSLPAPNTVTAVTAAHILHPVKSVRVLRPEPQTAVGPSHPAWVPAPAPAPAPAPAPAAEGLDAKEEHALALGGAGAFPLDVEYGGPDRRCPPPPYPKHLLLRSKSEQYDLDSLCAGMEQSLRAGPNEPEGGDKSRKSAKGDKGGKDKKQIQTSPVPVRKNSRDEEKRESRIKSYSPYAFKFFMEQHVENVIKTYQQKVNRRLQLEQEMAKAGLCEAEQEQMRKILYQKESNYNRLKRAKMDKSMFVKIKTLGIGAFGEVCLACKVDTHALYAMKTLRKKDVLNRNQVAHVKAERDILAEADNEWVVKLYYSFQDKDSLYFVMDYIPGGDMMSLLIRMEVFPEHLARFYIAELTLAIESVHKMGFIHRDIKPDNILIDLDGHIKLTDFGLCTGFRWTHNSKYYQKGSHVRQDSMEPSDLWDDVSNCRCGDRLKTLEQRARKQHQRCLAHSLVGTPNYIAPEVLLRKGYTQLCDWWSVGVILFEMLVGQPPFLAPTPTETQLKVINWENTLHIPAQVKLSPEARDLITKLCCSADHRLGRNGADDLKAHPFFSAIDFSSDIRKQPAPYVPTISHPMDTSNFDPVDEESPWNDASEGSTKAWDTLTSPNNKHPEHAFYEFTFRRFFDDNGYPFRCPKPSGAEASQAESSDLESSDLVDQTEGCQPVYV
As to the kind of experiment: Off-chip Mobility Shift Assay (MSA method), kinase inhibition. The settings on record: MSA method; 10 steps from 10 μM to 0.3 nM. Here is the method:
For compound k-1:B-1, inhibitory activity evaluation (calculation of 50% inhibitory concentration (IC50)) was performed on 8 kinds of kinases (CGK2, LATS2, MSK1, p70S6K, PKACα, PKACβ, SGK2, SGK3). The activity was measured using the Off-chip Mobility Shift Assay (MSA method) described below. The compound was added such that the test concentration of k-1:B-1 was in 10 steps from the final concentration of 10 μM to 0.3 nM.
As an analysis method of the data, the mean signal of the control well containing all reaction components was set to 0% inhibition, the mean signal without enzyme addition was set to 100% inhibition, and the inhibition rate was calculated from the mean signal of 2 wells of each test substance test. The IC50 value was obtained by approximating a plot based on the test substance concentration and inhibition rate to a 4 parameter logistics curve by using the Excel Solver add-in and by the non-linear least squares method.
(§1) 5 μL of k-1:B-1 solution at 4-fold concentration, 5 μL of substrate/ATP/metal solution at 4-fold concentration, and 10 μL of kinase solution at 2-fold concentration, each prepared with assay buffer (20 mM HEPES, 0.01% Triton X-100, 2 mM DTT, pH 7.5), were mixed in the wells of a polypropylene 384-well plate and reacted at room temperature for 1 or 5 hr. Successively, 70 μL of Termination Buffer (QuickScout Screening Assist MSA; Carna Biosciences) was added to discontinue the reaction. Then, the substrate peptide and the phosphorylated peptide in the reaction solution were separated and quantified by the LabChip system (Perkin Elmer). The kinase reaction was evaluated by the resultant product ratio (P/(P+S)) calculated from the substrate peptide peak height (S) and the phosphorylated peptide peak height (P).
For compounds k-1:H-7, k-1:H-1, k-1:D-1, k-1:J-1, and k-1:B-1, inhibitory rate at 100 nM was calculated on 8 kinds of kinases (CGK2, LATS2, MSK1, p70S6K, PKACα, PKACβ, SGK2, SGK3). The activity was measured using the MSA method. As an analysis method of the data, the mean signal of the control well containing all reaction components was set to 0% inhibition, the mean signal without enzyme addition was set to 100% inhibition, and the inhibition rate was calculated from the mean signal of 2 wells of each test substance test.
as §1, with “a compound” for “k-1:B-1”
For compounds k-1:I-1, k-1:D-1, k-1:J-1, k-1:H-1, k-1:H-7, k-1:B-1, k-5:H-1, k-1:H-3, k-1:D-4 and k-1:I-10, inhibitory activity evaluation (calculation of IC50) was performed on LATS2. The activity was measured using the Off-chip Mobility Shift Assay (MSA method) described below. The compounds were added such that the test concentration of each compound was in 10 steps from the final concentration of 10 μM to 0.3 nM.
5 μL of k-1:I-1, k-1:D-1, k-1:J-1, k-1:H-1, k-1:H-7, k-1:B-1, k-5:H-1, k-1:H-3, k-1:D-4 and k-1:I-10 solutions at 4-fold concentration, 5 μL of substrate/ATP/metal solution at 4-fold concentration, and 10 μL of kinase solution at 2-fold concentration, each prepared with assay buffer (20 mM HEPES, 0.01% Triton X-100, 2 mM DTT, pH 7.5), were mixed in the wells of a polypropylene 384-well plate and reacted at room temperature for 1 or 5 hr. […]

Assay [2] concerns the target T2, LATS2 (Homo sapiens, UniProt Q9NRM7).
T2 construct: purchased Carna Biosciences
T2 sequence (Q9NRM7 553-1088 limits assumed): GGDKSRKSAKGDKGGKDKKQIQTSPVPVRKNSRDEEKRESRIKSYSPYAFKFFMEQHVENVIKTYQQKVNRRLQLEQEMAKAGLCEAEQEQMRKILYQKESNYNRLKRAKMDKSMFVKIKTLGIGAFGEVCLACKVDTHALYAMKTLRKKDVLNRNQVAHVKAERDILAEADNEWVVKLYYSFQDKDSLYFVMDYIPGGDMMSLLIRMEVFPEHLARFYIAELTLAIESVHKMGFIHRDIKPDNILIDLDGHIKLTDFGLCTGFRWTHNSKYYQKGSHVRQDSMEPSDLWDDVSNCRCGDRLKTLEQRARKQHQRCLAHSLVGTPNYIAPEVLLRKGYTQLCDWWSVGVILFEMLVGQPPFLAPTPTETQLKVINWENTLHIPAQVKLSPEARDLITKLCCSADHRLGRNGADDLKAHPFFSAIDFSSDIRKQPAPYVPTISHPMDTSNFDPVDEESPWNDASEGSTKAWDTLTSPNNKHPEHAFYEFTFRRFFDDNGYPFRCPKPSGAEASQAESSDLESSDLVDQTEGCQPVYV
As to the kind of experiment: Kinase Assay method (Fluorospark Kinase/ADP Multi-Assay Kit). The procedure:
(§2) For compound k-1:B-1 (racemate), GA-002A, GA-002B, GA-005A and GA-005B, inhibitory activity evaluation (calculation of IC50) was performed on LATS1 and LATS2 (manufactured by Carna Biosciences). The activity was measured using the Kinase Assay method described below. The compounds were added such that the test concentration of k-1:B-1 (racemate), GA-002A, GA-002B, GA-005A and GA-005B was in 8 steps (10 μM, 1 μM, 100 nM, […], 10 nM, 3 nM, 1 nM, 0.3 nM) from the final concentration of 10 μM to 0.3 nM.
(§3) As the analysis method of the data, the mean signal of the control well containing reaction components other than the evaluation compound was set to 0% inhibition, the mean signal without enzyme addition was set to 100% inhibition, and the inhibition rate was calculated from the mean signal of 2 wells of each test substance test. IC50 value was calculated using EXSUS (version 7.1.6, manufactured by CAC EXICARE Corporation).
(§4) 2 μL of a compound of the present invention solution at 2.5-fold concentration, 1 μL of substrate at 5-fold concentration (SGKtide: NH2—CKKRNRRLSVA-COOH, manufactured by SignalChem), ATP (manufactured by Sigma-Aldrich), MgCl2 (manufactured by FUJIFILM Wako Pure Chemical Corporation) solution (final concentration 10 μM, 400 μM or 5 mM), and 2 μL of kinase solution at 2.5-fold concentration (final concentration of LATS1 or LATS2 5 μg/mL), each prepared with assay buffer (20 mM HEPES, 0.01% Triton X-100, 2 mM DTT, pH 7.5), were mixed in the wells of a polypropylene 384-well plate (manufactured by Greiner Bio-One, #784900) and reacted at room temperature for 5 hr. Successively, 5 μL detection solution (Fluorospark (registered trade mark)Kinase/ADP Multi-Assay Kit; manufactured by FUJIFILM Wako Pure Chemical Corporation) was added, and the mixture was reacted at room temperature 30 min. Successively, 5 μL of a reaction quenching liquid (Fluorospark (registered trade mark) Kinase/ADP Multi-Assay Kit; manufactured by FUJIFILM Wako Pure Chemical Corporation) was added to discontinue the reaction. Thereafter, the ADP concentration of the reaction solution was quantified by EnSpire (manufactured by PerkinElmer) to detect the kinase reaction.

In the next assay the target is T3, LATS1 (Homo sapiens, UniProt O95835).
T3 construct: purchased Carna Biosciences
T3 sequence (O95835 589-1130 limits assumed): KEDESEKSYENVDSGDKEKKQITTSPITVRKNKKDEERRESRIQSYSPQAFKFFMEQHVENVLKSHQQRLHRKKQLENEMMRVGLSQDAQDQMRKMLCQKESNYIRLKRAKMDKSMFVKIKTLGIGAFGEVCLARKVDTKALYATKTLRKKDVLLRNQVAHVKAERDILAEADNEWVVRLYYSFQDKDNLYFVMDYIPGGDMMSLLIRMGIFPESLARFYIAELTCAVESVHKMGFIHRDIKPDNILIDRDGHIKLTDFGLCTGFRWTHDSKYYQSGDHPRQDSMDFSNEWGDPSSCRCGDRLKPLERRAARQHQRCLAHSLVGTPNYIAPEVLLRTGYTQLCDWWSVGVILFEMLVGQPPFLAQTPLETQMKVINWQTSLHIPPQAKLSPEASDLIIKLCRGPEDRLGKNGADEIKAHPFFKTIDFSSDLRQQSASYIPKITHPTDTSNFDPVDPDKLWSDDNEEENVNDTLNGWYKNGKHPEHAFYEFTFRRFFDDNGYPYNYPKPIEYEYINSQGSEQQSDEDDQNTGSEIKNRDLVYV
The description is as above. Here is the method:
as §2, §3, §4

Where [3] appears, read: Kinase Assay method, 8 steps 10 μM to 0.3 nM.

As usually defined, the IC50 is the concentration needed to halve the response being measured.

`CCC(=NNC(=O)NC(C)c1cccc(O)c1)c1ccc(O)c(C)c1O` (centres unmarked) [k-1:I-10]: the IC50 on LATS2 [1] worked out at 15 nM. Turning to `CC/C(=N\NC(=O)[C@H](C)Nc1cccc(O)c1)c1ccc(O)c(C)c1O` [GA-005B], the inhibition at 0.1 µM at LATS2 [2] (100 nM, read-out: LARS2 inhibitory rate (%)) is 27%; on LATS1 (100 nM, read-out: LARS1 inhibitory rate (%)) it was 14%. The inhibition at 1 µM on LATS2 [2] (1000 nM, read-out: LARS2 inhibitory rate (%)) was 55%; at LATS1 (1000 nM, read-out: LARS1 inhibitory rate (%)), 45%. Further, the half-inhibitory concentration (IC50) stood at 652 nM on LATS2 [2] (setting [3]) and 1270 nM at LATS1 (setting [3]). Regarding `CC/C(=N\NC(=O)NCc1ccccc1)c1ccc(O)c(C)c1O` [k-1:I-1], the IC50 on LATS2 [1] turned out to be 96 nM. For `CCC(=NNC(=O)CNc1cccc(C)c1)c1ccc(O)c(C)c1O` [k-1:H-3], on LATS2 [1], the IC50 worked out at 46.9 nM. Consider `CCC(=NNC(=O)CNc1ccccc1O)c1ccc(O)c(C)c1O` [k-1:D-4], for which the IC50 on LATS2 [1] was determined as 33.4 nM. Consider `Cc1c(O)ccc(C(CC(C)C)=NNC(=O)CNc2ccccc2)c1O` [k-5:H-1], for which, on LATS2 [1], the IC50 turned out to be 21.6 nM.

The record behind these values is patent publication US20210253518A1, “KINASE INHIBITOR” (NISSAN CHEMICAL CORPORATION, priority 2018, published 2021).
